Experimental data taken from patent publication US7312248B2, “Control of parasites in animals by the use of novel trifluoromethanesulfonanilide oxime ether derivatives” (Schering-Plough Animal Health Corporation, priority 2004, dated 2007).
Where two headings read alike, the source gives them in different places.

System: cat flea (Ctenocephalides felis)
Assay: whole plant or invertebrate
Assay type: in vivo
Settings: for mortality at 1.26 µg/cm2 / mortality at 1.26 µg/cm2, 1.26 µg/cm2: Ctenocephalides felis
Experimental: b) Ctenocephalides felis Adulticide Assay: C. felis Single Dose Screen
Mortality of fleas was the primary endpoint in the assay. Fleas were considered dead if they didn't move or were on their sides and unable to walk or right themselves. […] The concentration chosen (1.26 μg/cm^2) was higher than that known to kill 90% of cat fleas (LC90) using the reference compound, permethrin.
The test species was the cat flea (Ctenocephalides felis). The strain used was obtained from external suppliers as pupae and held in the laboratory under testing conditions until the adults had emerged. Fifteen (15) fleas were used in a minimum of four replicates against a single concentration level (approximately 60 fleas). The insects were selected to be in the adult life stage, aged between 3 and 7 days post emergence.
The compounds to be tested were supplied as solids and were prepared in acetone as described below prior to testing. Samples were stored in a refrigerator (5±1° C.) unless otherwise specified.
During the mortality testing, the temperature was maintained at 25±1° C. Humidity was maintained at 75±5%. The base (area=159 mm^2) of a 100 mL glass Erlenmeyer (conical) flask provided the treatment surface. Flasks were pretreated with Coatasil™ glass treatment to maximise bio-availability of test compounds by preventing them from binding to glass the surface. The base of the 100 mL Erlenmeyer flask was treated with 0.5 mL of test sample in acetone and gently swirled. This volume was sufficient to cover the base of the flask. Flasks were left to dry for 24 hours before flea exposure.
Adult cat fleas were placed into a sorting chamber, which allowed fleas to jump into the Erlenmeyer flasks. Fifteen (15) adult cat fleas were collected in each flask. The top of the flasks were then covered in Parafilm™ and small holes were made to allow gas exchange. A 0.5 mL volume of acetone as a solvent control was applied to the base of an Erlenmeyer flask and the testing proceeded in the same manner described above. Cat fleas in the treatment containers were held under testing conditions for 8, 24 and/or 48 hours. Mortality was recorded at 8, 24, 8 and 24, or 24 and 48 hours. Pooled 8, 24, 8 and 24, and 24 and 48 hour mortality data were converted to percentages and are summarized by Tables 14, 14A and 14B, below.

[1] = 8 h, read-out: Ctenocephalides felis Mortality (%) 8 h
[2] = 24 h, read-out: Ctenocephalides felis Mortality (%) 24 h
[3] = 24 h, read-out: C. felis Mortality (%) 24 h, 24 h, Laboratory 1 A data
[4] = 48 h, read-out: Ctenocephalides felis Mortality (%) 48 h
[5] = 24 h, read-out: C. felis Mortality (%) 24 h, 24 h, Laboratory 2 B data
[6] = 48 h, read-out: C. felis Mortality (%) 48 h, 48 h, Laboratory 2 B data
[7] = 8 h, read-out: C. felis Mortality (%) 8 h, 8 h, Laboratory 2 B data

Compound: O=S(=O)(Nc1ccc(Cl)cc1-c1cc(C2CCCCC2)on1)C(F)(F)F [Compound 292]
- mortality at 1.26 µg/cm2 [1]: 15%
- mortality at 1.26 µg/cm2 [2]: 92%

Compound: O=S(=O)(Nc1ccc(Cl)cc1/C(=N/Oc1ccc(F)cc1)C1CCCCC1)C(F)(F)F [Compound 169, N-{4-chloro-2-[(4-fluorophenoxyimino)cyclohexylmethyl]phenyl}trifluoromethanesulfonamide]
- mortality at 1.26 µg/cm2, 1.26 µg/cm2 [3]: 9%

Compound: CO/N=C(\C)c1cccc(C)c1NS(=O)(=O)C(F)(F)F [Compound 42]
- mortality at 1.26 µg/cm2, 1.26 µg/cm2 [3]: 72%

Compound: CCCC(=O)OCN(c1ccc(Cl)cc1/C(C)=N/Oc1ccc(F)cc1)S(=O)(=O)C(F)(F)F [Compound 312]
- mortality at 1.26 µg/cm2 [1]: 11%
- mortality at 1.26 µg/cm2 [2]: 89%

Compound: CCOCN(c1ccc(Cl)cc1/C(C)=N/Oc1ccc(F)cc1)S(=O)(=O)C(F)(F)F [Compound 299]
- mortality at 1.26 µg/cm2 [2]: 0%
- mortality at 1.26 µg/cm2 [4]: 56%

Compound: CCCO/N=C(\c1ccccc1)c1cc(Cl)ccc1NS(=O)(=O)C(F)(F)F [Compound 252]
- C. felis Mortality (%) 24 h (24 h, Laboratory 2 B data): 15^B %
- C. felis Mortality (%) 48 h (48 h, Laboratory 2 B data): 100%

Compound: CCC(CC)O/N=C(\C)c1ccc(C(F)(F)F)cc1NS(=O)(=O)C(F)(F)F [Compound 236]
- mortality at 1.26 µg/cm2, 1.26 µg/cm2 [5]: 69%
- mortality at 1.26 µg/cm2, 1.26 µg/cm2 [6]: 100%

Compound: C/C(=N\OCc1ccc(Cl)cc1)c1cc(Cl)ccc1N(C)S(=O)(=O)C(F)(F)F [Compound 296]
- mortality at 1.26 µg/cm2 [2]: 0%
- mortality at 1.26 µg/cm2 [4]: 19%

Compound: CCC/C(=N\OC1CCCCC1)c1cc(Cl)ccc1NS(=O)(=O)C(F)(F)F [Compound 192]
- mortality at 1.26 µg/cm2, 1.26 µg/cm2 [7]: 18%
- mortality at 1.26 µg/cm2, 1.26 µg/cm2 [5]: 43%

Compound: C/C(=N\OCC(C)C)c1ccc(C(F)(F)F)cc1NS(=O)(=O)C(F)(F)F [Compound 240]
- mortality at 1.26 µg/cm2, 1.26 µg/cm2 [5]: 64%
- mortality at 1.26 µg/cm2, 1.26 µg/cm2 [6]: 98%

Compound: CCO/N=C(\C)c1ccccc1NS(=O)(=O)C(F)(F)F [Compound 29]
- mortality at 1.26 µg/cm2, 1.26 µg/cm2 [3]: 92%

Compound: CC/C(=N\OCC#N)c1cc(Cl)ccc1NS(=O)(=O)C(F)(F)F [Compound 153]
- mortality at 1.26 µg/cm2, 1.26 µg/cm2 [3]: 77%

Compound: C/C(=N\OC1CCCCC1)c1ccc(C(F)(F)F)cc1NS(=O)(=O)C(F)(F)F [Compound 237]
- mortality at 1.26 µg/cm2, 1.26 µg/cm2 [5]: 4%
- mortality at 1.26 µg/cm2, 1.26 µg/cm2 [6]: 36%

Compound: CO/N=C(\c1ccccc1)c1cc(Cl)ccc1NS(=O)(=O)C(F)(F)F [Compound 233]
- C. felis Mortality (%) 24 h (24 h, Laboratory 2 B data): 15^B %
- C. felis Mortality (%) 48 h (48 h, Laboratory 2 B data): 96%

Compound: O=S(=O)(Nc1ccc(Cl)cc1/C(=N/Oc1ccc(Cl)cc1)c1ccccc1)C(F)(F)F [Compound 164, N-{4-chloro-2-[(4-chlorophenoxyimino)phenylmethyl]phenyl}trifluoromethanesulfonamide]
- mortality at 1.26 µg/cm2, 1.26 µg/cm2 [3]: 19%

Compound: CCO/N=C(\C)c1cccc(C)c1NS(=O)(=O)C(F)(F)F [Compound 43]
- mortality at 1.26 µg/cm2, 1.26 µg/cm2 [3]: 86%

Compound: C/C(=N\OCC=C(Cl)Cl)c1ccccc1NS(=O)(=O)C(F)(F)F [Compound 25]
- mortality at 1.26 µg/cm2, 1.26 µg/cm2 [3]: 100%

Compound: CCO/N=C(\C)c1cc(Br)ccc1NS(=O)(=O)C(F)(F)F [Compound 53]
- mortality at 1.26 µg/cm2, 1.26 µg/cm2 [3]: 100%

Compound: C/C(=N\OCCC(C)C)c1cc(Cl)ccc1NS(=O)(=O)C(F)(F)F [Compound 246]
- mortality at 1.26 µg/cm2, 1.26 µg/cm2 [5]: 98%
- mortality at 1.26 µg/cm2, 1.26 µg/cm2 [6]: 100%

Compound: CCCc1conc1-c1cc(Cl)ccc1NS(=O)(=O)C(F)(F)F [Compound 295]
- mortality at 1.26 µg/cm2 [1]: 0%
- mortality at 1.26 µg/cm2 [2]: 44%

Compound: CC/C(=N\OC(CC)c1ccccc1)c1cc(Cl)ccc1NS(=O)(=O)C(F)(F)F (centres unmarked) [Compound 256]
- mortality at 1.26 µg/cm2, 1.26 µg/cm2 [7]: 0%
- mortality at 1.26 µg/cm2, 1.26 µg/cm2 [5]: 84%

Compound: C/C(=N\Oc1ccc(OC(F)(F)F)cc1)c1cc(Cl)ccc1NS(=O)(=O)C(F)(F)F [Compound 151]
- mortality at 1.26 µg/cm2, 1.26 µg/cm2 [3]: 62%

Compound: CO/N=C(\C)c1cc2c(cc1NS(=O)(=O)C(F)(F)F)OCO2 [Compound 32]
- mortality at 1.26 µg/cm2, 1.26 µg/cm2 [3]: 100%

Compound: CC/C(=N\OCC1CCCCC1)c1cc(Cl)ccc1N(C(C)=O)S(=O)(=O)C(F)(F)F [Compound 311]
- mortality at 1.26 µg/cm2 [1]: 14%
- mortality at 1.26 µg/cm2 [2]: 76%

Compound: CC/C(=N\Oc1ccc(F)c(F)c1)c1cc(Cl)ccc1NS(=O)(=O)C(F)(F)F [Compound 148]
- mortality at 1.26 µg/cm2, 1.26 µg/cm2 [3]: 38%

Compound: COCCON=C(c1ccccc1)c1cc(Cl)ccc1NS(=O)(=O)C(F)(F)F (racemic) [Compound 234, N-{4-chloro-[(2-methoxyethoxyimino)phenylmethyl]phenyl}trifluoromethanesulfonamide]
- mortality at 1.26 µg/cm2, 1.26 µg/cm2 [5]: 64%
- mortality at 1.26 µg/cm2, 1.26 µg/cm2 [6]: 100%
